The structures appear in SMILES notation. Some results are limits rather than exact numbers.

In one data set the test system is A375 cells. The data set can be described thus: Apoptosis and cell cycle analysis by PI staining and flow cytometry, A375. The settings on record: 5-10-25 μM, 48 h. In kind it is cell-based, human. On the procedure:
(§1) The cells were incubated for 48 h with 1 and 6 at concentrations 5-10-25μM.
(§2) The effect of compound 1 and 6 on cell death was analyzed by propidium iodide (PI) (Merck, Darmstadt, Germany) incorporation in permeabilized cells and flow cytometry. Briefly, cells were plated at a density of 2 × 10^4 cells/well in a 24-well plate. After 24 h, 1 and 6 (25-10-5 μM) were added for 48 h. Cells were washed twice with PBS and incubated in 500μL of a solution containing 0.1% Triton X-100, 0.1% sodium citrate, and […] propidium iodide (PI), at 4 °C for 30 min in the dark. The PI-stained cells were subsequently analyzed by flow cytometry by FACSCalibur flow cytometer (Becton Dickinson, Milan, Italy) using CellQuest software (4.0, Becton Dickinson, North Ryde, NSW, Australia). Results are expressed as the percentage of cells in the hypodiploid region. Cellular debris were excluded from the analysis by raising the forward scatter threshold and the DNA content of the nuclei was registered on a logarithmic scale. Cell cycle profiles were evaluated by DNA staining with a PI solution using a flow cytometer. Results from 5000 events per sample were collected, and the relative percentage of the cells in G0/G1, S, G2/M, and sub-G0/G1 phases of the cell cycle was determined using the ModFit LT version 3.3 analysis software (BD Biosciences, North Ryde, NSW, Australia).
Figure 3 Cell cycle analysis: (a) DNA content and (b) hypodiploid nuclei, with propidium iodide staining, were evaluated by flow cytometric assay. A375 cells were treated respectively with 1 or 6 (both 5-10-25 μM) for 48 h. Results are expressed as mean ± S.E.M. of three independent experiments, each performed in duplicate. Data were analyzed by Student’s t-test. * p < 0.05 and ** p < 0.005 vs. non-treated.

The test system of data set [1] is human melanoma cell line (A375). The data set can be described thus: MTT cell viability assay, A375. It counts as cell-based. The conditions noted are these: Homo sapiens, A-375, 48 h, 5–50 µM, read-out: A375 Cell Line IC50 ± SD. The procedure:
(§3) Firstly, the antiproliferative activity of lead compound 1, 2 and 5–9 against selected human cell lines was assessed. No effect on human PHA (Phytohaemagglutinin)-stimulated proliferating non-tumor human cell line (PMBC) has been detected for compound 1 tested at different concentrations (10–50 μM) after 72 h of exposure. In more detail, all the synthesized compounds have been tested on human melanoma cancer A375 and HeLa cancer cell lines, which are known to overexpress BAG3 protein, by an MTT cell viability assay, using different concentrations (5–50 μM). The IC50 values have been calculated after 48 h of treatment with test compounds (Table 2).
(§4) Cell lines of human cervical carcinoma (HeLa) and human malignant melanoma (A375) were cultured in Dulbecco’s modified Eagle’s medium containing 10% fetal bovine serum, supplemented with 100 U/mL each of penicillin and streptomycin, and 2 mM/L glutamine and were grown at 37 °C under 5% CO2 air humidified atmosphere.
(§5) Cell viability was evaluated using a colorimetric assay based on MTT ((3-(4,5-dimethylthiazol-2-yl)-2,5-diphenyltetrazolium bromide)) assay. Cells were grown in 96-well tissue culture plates (3,5 × 10^3 cells/well) and after 24 h, were treated with different concentrations of 1, 2 and 5–9 (50, 25, 10, and 5 µM) and incubation was performed for 48 h at 37 °C in an atmosphere containing 5% CO2. At the end of treatment, the plates were centrifuged at 1200 rpm for 5 min, the medium was removed and 100 μL of MTT (1 mg/mL) were added to each well, and cells were incubated at 37 °C for the time necessary to allow the formation of purple formazan precipitate. The solution was then removed from each well, and the formazan crystals within the cells were dissolved with 100 μL of DMSO [31]. The optical density (OD) of each well was measured with a microplate spectrophotometer (Multiskan Spectrum Thermo Electron Corporation reader) (Thermo Fisher Scientific, Rome, Italy) equipped with a 620-nm filter. Cell mortality was calculated as: % mortality = 100 − [100 × (OD treated/OD control)] [32].

Data set [2] has as its target Human recombinant BAG3 (rBAG3) protein full length (Homo sapiens, UniProt O95817). Nature of the data set: SPR assay on recombinant full-length BAG3.
Experimental: (§6) A surface plasmon resonance (SPR) assay [18], using a recombinant BAG3 protein, was performed and, to explore the potential selectivity of our potential binders, the affinity for BAG4—the most closely BAG3 related protein—was also evaluated. Moreover, the binding affinity towards the BAG3BD domain was also assessed.
(§7) The SPR analysis were performed on Biacore 3000^TM equipped with a research-grade CM5 sensor chip (GE Healthcare^TM, Milan, Italy). Human recombinant BAG3 (rBAG3) protein was purchased from MyBioSource© (San Diego, CA, USA), BAG3 domain (rBAG3BD) was purchased from ARETA International S.r.l. […] The proteins were coupled to the surface of a CM5 sensor chip using standard amine-coupling protocols, according to the manufacturer’s instructions. Three separates recombinant rBAG proteins surfaces and one unmodified reference surface were prepared for simultaneous analyses. rBAG proteins (BAG3 and BAG4) and rBAG3BD (100 µg mL^−1 in 10 mM CH3COONa, pH 4.5) were immobilized on the sensor chip surface at a flow rate of 5 µL min^−1 to obtain densities of 5–9 kRU. […] For each molecule, a six-point concentration series was conducted in triplicate (0-0.25-1-10-20-100 µM). SPR (Surface Plasmon Resonance) experiments were performed at 25 °C, using a flow rate of 10 µL min^−1, with 60-s monitoring of association and 300-s monitoring of dissociation. Sensorgram elaborations were performed using the BIAevaluation software (GE Healthcare^TM, Milan, Italy). provided by GE Healthcare^TM. Simple interactions were suitably fitted to a single-site bimolecular interaction model (A + B = AB), yielding a single KD.
Data set [3] deals with human cervical adenocarcinoma cell line (HeLa). The data set can be described thus: MTT cell viability assay, HeLa. The settings on record: Homo sapiens, HeLa, 48 h, 5–50 µM, read-out: HeLa Cell Line IC50 ± SD. In kind it is cell-based. On the procedure:
as §3, §4, §5

Data set [4] deals with T1, human recombinant BAG4 protein (Homo sapiens, UniProt O95429).
T1 sequence (O95429 1-457): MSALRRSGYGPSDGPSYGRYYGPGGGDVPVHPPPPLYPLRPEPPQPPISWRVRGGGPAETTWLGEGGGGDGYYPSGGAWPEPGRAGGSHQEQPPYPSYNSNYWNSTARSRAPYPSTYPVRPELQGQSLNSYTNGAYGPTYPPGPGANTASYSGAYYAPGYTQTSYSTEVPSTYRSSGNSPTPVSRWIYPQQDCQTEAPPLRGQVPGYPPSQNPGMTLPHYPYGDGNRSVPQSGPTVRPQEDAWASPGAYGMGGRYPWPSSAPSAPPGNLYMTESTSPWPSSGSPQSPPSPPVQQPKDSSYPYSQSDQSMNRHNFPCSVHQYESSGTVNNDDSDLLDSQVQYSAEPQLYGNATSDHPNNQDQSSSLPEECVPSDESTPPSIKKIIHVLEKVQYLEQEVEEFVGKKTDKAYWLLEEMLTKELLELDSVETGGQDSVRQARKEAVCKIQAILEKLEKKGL
The data set can be described thus: SPR assay on BAG4 (selectivity). The settings on record: 25 °C, n.b. = no binding.
Experimental: as §6, §7

The next data set has as its target T2, BAG3 domain (rBAG3BD) (Homo sapiens, UniProt O95817).
T2 sequence (O95817 421-498 limits assumed): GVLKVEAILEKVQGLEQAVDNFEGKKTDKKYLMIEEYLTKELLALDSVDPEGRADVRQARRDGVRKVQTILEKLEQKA
The data set can be described thus: SPR assay on isolated BAG3 BAG domain.

Another data set concerns A549. The arrangement: method as in PMID 29926854. The conditions noted are these: A549 cells; read-out: antiproliferative activity IC50, A549; cited from earlier work.
The test system of data set [5] is human PHA (Phytohaemagglutinin)-stimulated proliferating non-tumor human cell line (PMBC). On the set-up: method as in PMID 29926854. The conditions noted are these: 10–50 μM, 72 h of exposure; cited from earlier work.
Another data set deals with HeLa cells. Nature of the data set: Apoptosis and cell cycle analysis by PI staining and flow cytometry, HeLa. The settings on record: 5-10-25 μM, 48 h. It counts as cell-based, human. The procedure: as §1, §2
Figure 4 Cell cycle analysis: (a) DNA content and (b) hypodiploid nuclei, with propidium iodide staining, were evaluated by flow cytometric assay. HeLa cells were treated with 6 (5-10-25 μM) for 48 h. Results are expressed as mean ± S.E.M. of three independent experiments each performed in duplicate. Data were analyzed by Student’s t-test. * p < 0.05 and ** p < 0.005 vs. non-treated.

Another data set concerns PC3. The arrangement: method as in PMID 29926854. The settings on record: PC3 cells; read-out: antiproliferative activity IC50, PC3; cited from earlier work.

Human recombinant BAG3 (rBAG3) protein full length, sequence (O95817 whole entry): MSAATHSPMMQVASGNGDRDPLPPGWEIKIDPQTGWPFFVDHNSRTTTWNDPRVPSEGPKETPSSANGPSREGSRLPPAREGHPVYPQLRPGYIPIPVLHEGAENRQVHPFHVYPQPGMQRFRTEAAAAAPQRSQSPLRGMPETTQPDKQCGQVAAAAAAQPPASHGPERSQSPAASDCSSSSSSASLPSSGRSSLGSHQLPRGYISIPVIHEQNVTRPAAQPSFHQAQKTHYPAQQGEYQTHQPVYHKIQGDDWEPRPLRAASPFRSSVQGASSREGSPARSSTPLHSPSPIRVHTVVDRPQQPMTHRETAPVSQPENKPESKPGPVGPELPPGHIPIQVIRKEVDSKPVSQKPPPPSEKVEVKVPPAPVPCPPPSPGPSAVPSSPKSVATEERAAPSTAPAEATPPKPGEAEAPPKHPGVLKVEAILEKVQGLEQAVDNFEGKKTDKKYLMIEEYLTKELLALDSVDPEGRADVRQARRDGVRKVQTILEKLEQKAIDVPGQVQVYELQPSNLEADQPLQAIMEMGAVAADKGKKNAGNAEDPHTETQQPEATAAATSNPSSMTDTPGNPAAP
Experimental for BAG3 domain (rBAG3BD): as §6, §7

For the molecule `CCOC(=O)CN1C(=O)S/C(=C\c2ccc(O)c(O)c2)C1=O` [Compound 1, reference compound], the “apoptotic response (hypodiploid nuclei), A375” value with A375 cells is given as “dose-dependent increase in hypodiploid nuclei”. In the data set with A375 cells, the “cell cycle distribution (G2 phase), A375” value was “accumulation in the G2 phase”. Besides, the IC50 was 15.1 ± 0.9 µM in [1], over 50 µM in data set [3], 32.3 ± 0.9 µM in the data set with A549 and 48.1 ± 1.5 µM with PC3. In addition, the Kd stood at 0.0111 ± 0.0039 µM in [2] and 0.0064 ± 0.0022 µM on BAG3 domain (rBAG3BD). Also, the “rBAG4 KD ± SD” value in data set [4] is reported as “n.b. ^a”. Also, the “effect on PHA-stimulated proliferating non-tumor cells” value in data set [5] was “No effect”. Further, the “cell cycle distribution (G2 phase), HeLa” value in the data set on HeLa cells is “no evident effect”.

(Values after publication PMC8839660, “Structural Refinement of 2,4-Thiazolidinedione Derivatives as New Anticancer Agents Able to Modulate the BAG3 Protein” (Molecules, 2022).)
